The results in this text go back to article PMC12251305 (Molecules, 2025).

Broadly, the Ki is the dissociation constant of the complex between target and ligand, obtained from inhibition or displacement.

Like-named read-outs stand apart in the source and are kept apart here.

For data set [1], the target named is T1, DOR (Homo sapiens, UniProt P41143). Put plainly: [35S]GTPγS functional assay (agonist mode) at DOR. It counts as biochemical. For orientation: GTPγS is a poorly hydrolysed GTP analogue; its binding reports G protein activation.
T1 sequence (P41143 whole entry): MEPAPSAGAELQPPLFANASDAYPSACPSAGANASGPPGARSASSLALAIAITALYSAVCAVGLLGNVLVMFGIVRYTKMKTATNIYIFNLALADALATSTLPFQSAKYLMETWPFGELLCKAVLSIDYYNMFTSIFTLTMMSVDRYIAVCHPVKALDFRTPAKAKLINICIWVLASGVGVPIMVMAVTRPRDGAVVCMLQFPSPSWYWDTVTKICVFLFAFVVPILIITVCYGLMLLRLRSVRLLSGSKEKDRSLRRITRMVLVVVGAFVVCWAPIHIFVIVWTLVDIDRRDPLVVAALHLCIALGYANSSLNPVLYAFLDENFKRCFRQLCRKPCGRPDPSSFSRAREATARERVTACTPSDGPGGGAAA
Data set [2] concerns the target T1, DOR. In words: Radioligand competition binding at DOR.
Data set [3] deals with T2, MOR (Homo sapiens, UniProt P35372). In words: Radioligand competition binding at MOR. On the technique in general: Displacement assays read how much labelled ligand stays bound in the presence of the test substance.
T2 sequence (P35372 whole entry): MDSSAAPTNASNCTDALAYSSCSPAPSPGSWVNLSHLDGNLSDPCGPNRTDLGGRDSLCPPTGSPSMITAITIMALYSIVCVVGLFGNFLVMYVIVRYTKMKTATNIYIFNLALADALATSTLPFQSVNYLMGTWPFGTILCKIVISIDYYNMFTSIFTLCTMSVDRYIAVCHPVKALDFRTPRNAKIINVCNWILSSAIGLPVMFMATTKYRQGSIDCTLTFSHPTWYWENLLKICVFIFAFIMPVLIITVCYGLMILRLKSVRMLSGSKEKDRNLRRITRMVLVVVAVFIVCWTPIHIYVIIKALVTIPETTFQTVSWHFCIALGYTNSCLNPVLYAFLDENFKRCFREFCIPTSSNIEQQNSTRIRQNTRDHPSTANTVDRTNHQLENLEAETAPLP
The target of data set [4] is T3, KOR (Homo sapiens, UniProt P41145). In words: [35S]GTPγS functional assay (agonist mode) at KOR. It counts as biochemical.
T3 sequence (P41145 whole entry): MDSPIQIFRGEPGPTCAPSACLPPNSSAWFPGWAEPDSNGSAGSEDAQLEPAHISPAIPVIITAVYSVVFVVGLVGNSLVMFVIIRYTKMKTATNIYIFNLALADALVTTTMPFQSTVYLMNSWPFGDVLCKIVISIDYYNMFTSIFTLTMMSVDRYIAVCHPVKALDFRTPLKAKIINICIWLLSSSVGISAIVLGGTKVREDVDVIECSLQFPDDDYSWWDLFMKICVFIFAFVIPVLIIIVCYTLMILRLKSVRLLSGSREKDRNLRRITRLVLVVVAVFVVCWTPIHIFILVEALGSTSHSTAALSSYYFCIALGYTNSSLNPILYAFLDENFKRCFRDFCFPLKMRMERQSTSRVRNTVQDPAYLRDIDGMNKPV
The test system of data set [5] is C57BL/6J mice. In words: Anti-hyperalgesia assay (48 °C warm water tail withdrawal assay, NPFF-induced hyperalgesia). It counts as in vivo, mouse. The note with it: 30 nmol i.c.v. two hours before NPFF 30 nmol i.c.v.
Data set [6] has as its target T3, KOR. In words: biochemical. Format: binding.
Data set [7] concerns C57BL/6J mice. Put plainly: Antinociception assay (55 °C warm water tail withdrawal assay). It counts as in vivo, mouse. The note with it: 30 nmol i.c.v., 55 °C.
The target of a further data set is T4, hNPFF2-R (Homo sapiens, UniProt Q9Y5X5).
T4 construct: expressed in transfected cells; host or cells: CHO cells (membranes)
T4 sequence (Q9Y5X5 whole entry): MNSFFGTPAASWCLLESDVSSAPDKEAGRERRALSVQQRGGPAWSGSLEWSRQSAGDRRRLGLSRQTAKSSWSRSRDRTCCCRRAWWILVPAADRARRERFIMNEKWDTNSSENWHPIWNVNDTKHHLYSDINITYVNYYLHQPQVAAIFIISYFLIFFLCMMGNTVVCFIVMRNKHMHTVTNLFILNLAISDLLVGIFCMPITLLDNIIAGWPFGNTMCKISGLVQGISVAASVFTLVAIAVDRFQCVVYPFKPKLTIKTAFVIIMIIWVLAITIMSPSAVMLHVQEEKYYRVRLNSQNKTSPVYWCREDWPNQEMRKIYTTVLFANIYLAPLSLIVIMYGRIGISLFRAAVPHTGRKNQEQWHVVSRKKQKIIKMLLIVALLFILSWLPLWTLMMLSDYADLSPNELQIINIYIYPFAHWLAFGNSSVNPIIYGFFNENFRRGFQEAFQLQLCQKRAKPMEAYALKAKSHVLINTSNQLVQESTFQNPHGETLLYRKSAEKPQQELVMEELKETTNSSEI
In words: Radioligand competition binding at NPFF2-R.

Data set [8] addresses T2, MOR. Put plainly: [35S]GTPγS functional assay (agonist mode) at MOR. Format: biochemical.
For the next data set, the target named is T5, hNPFF1-R (Homo sapiens, UniProt Q9GZQ6).
T5 construct: expressed in transfected cells; host or cells: CHO cells
T5 sequence (Q9GZQ6 whole entry): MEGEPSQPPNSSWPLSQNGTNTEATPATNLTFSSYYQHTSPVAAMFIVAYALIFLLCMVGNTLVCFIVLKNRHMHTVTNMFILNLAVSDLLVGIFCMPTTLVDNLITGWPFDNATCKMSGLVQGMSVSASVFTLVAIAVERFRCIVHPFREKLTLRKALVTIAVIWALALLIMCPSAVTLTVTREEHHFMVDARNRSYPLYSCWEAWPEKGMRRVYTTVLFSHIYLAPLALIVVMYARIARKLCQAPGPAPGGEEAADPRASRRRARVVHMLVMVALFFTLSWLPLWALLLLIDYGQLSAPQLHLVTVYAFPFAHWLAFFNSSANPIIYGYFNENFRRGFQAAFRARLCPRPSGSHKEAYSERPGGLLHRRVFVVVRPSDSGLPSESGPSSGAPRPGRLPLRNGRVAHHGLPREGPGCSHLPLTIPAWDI
In words: Radioligand competition binding at NPFF1-R.

The test system of data set [9] is C57BL/6J mice. Put plainly: Locomotor testing (CLAMS). The note with it: 100 nmol i.c.v., 90 min. It counts as in vivo, mouse.
Data set [10] relates to C57BL/6J mice. Put plainly: Respiration testing (CLAMS). Format: in vivo, mouse. The conditions noted are these: 100 nmol i.c.v., 90 min.
The subject of data set [11] is C57BL/6J mice. Put plainly: Excreta assay (intestinal transit). The conditions noted are these: 90 min.
Data set [12] relates to C57BL/6J mice. In words: Acute antinociceptive tolerance assay (55 °C warm water tail withdrawal). Format: in vivo, mouse. The conditions noted are these: i.c.v.
Where [13] appears, read: GTPγS Delta Agonist Functional Assay EC50 (Figure S2 curve fit), Figure S2, axis Log(M), DPDPE run beside each compound.
Setting [14] is: [35S]GTPγS DOR EC50 ± SEM, agonist mode, standard DPDPE.
[15] abbreviates: read-out: Receptor Binding, Ki ± SEM DOR.
Setting [16] is: [35S]GTPγS KOR EC50 ± SEM, agonist mode, standard U-69,593.
[17] abbreviates: [3H]EYF, transfected CHO cell membranes, read-out: Receptor Binding, Ki ± SEM NPFF2-R.
Setting [18] is: GTPγS Mu Agonist Functional Assay EC50 (Figure S2 curve fit).
Where [19] appears, read: read-out: Receptor Binding, Ki ± SEM NPFF1-R.
The mark [20] stands for this setting: GTPγS Kappa Agonist Functional Assay EC50 (Figure S2 curve fit), Figure S2, axis Log(M), U69,593 run beside each compound.

On to `N=C(N)Nc1cccc(C(=C2CCN(Cc3ccccc3)CC2)c2ccc(O)cc2)c1` [Compound 14a, 1-(3-((1-Benzylpiperidin-4-ylidene)(4-hydroxyphenyl)methyl)phenyl)guanidine], for which the EC50 on DOR [1] (setting [13]) came out at 4.55e-07 M; at DOR [1] (setting [14]), 4.55e-07 ± 6.17e-08 M; at KOR [4] (setting [16]), 4.82e-07 ± 8.16e-08 M; at MOR [8] (setting [18]), 420 nM; on MOR [8] ([35S]GTPγS MOR EC50 ± SEM), 420 ± 54.5 nM. Moreover, the “reduction of affinity at DOR relative to 13a” value at DOR [2] (hydroxyl shifted from 3′- to 4′- position) is on record as 4 fold. Further, the Ki on DOR [2] (setting [15]) is 2.33 ± 0.6 nM; at MOR [3], 33.5 ± 4.7 nM; on KOR [6] it was 32.3 ± 3.5 nM; at hNPFF2-R (setting [17]), greater than 10000 nM; on hNPFF1-R (setting [19]), 1720 ± 308 nM. Besides, the “prevention of NPFF-induced hyperalgesia (screening)” value (“prevention” for short) with C57BL/6J mice [5] is recorded as “greater anti-NPFF activity”. Moreover, at KOR [6], the “reduction of affinity at KOR relative to 13a” value turned out to be 11 fold. Besides, in the data set with C57BL/6J mice [7], the “antinociceptive activity over time (screening)” value was “did not produce statistically significant antinociception”.

As to `CN1CC[C@]23c4c5ccc(O)c4O[C@H]2[C@@H](O)C=C[C@H]3[C@H]1C5` [morphine, reference compound], in the data set on C57BL/6J mice [9], the “effect on ambulation (spontaneous locomotor activity)” value was “increased ambulation”. Also, in the data set with C57BL/6J mice [10], the “effect on respiration rate” value is “significant respiratory depression”. The figures for the “number of excreted fecal boli” value with C57BL/6J mice [11] (30 nmol i.c.v.) and with C57BL/6J mice [11] (100 nmol i.c.v.) were 1.8 ± 0.8 boli and 1.5 ± 0.6 boli, respectively. The “antinociception ED50 (95% CI), single administration” value in the data set on C57BL/6J mice [12] (55 °C, baseline dose response) was 2.35 (1.13–5.03) nmol. Moreover, the “antinociception ED50 (95% CI), second administration” value in the data set on C57BL/6J mice [12] (given 8 h after a first dose (morphine 3 nmol, 22b 8.7 nmol), 55 °C) is 22.5 (8.48–61.9) nmol. Moreover, in the data set with C57BL/6J mice [12] (second administration 8 h after first), the “rightward shift of antinociceptive dose response (acute tolerance)” value worked out at 9.6 fold.

For `N=C(N)Nc1cccc(C(=C2CCN(Cc3ccccc3)CC2)c2ccccc2)c1` [Compound 22a, 1-(3-((1-Benzylpiperidin-4-ylidene)(phenyl)methyl)phenyl)guanidine], the EC50 on DOR [1] (setting [13]) was determined as 2.56e-07 M; at DOR [1] (setting [14]), 2.56e-07 ± 2.49e-08 M; at KOR [4] (setting [16]) it was 2.55e-07 ± 5.77e-08 M; on MOR [8] ([35S]GTPγS MOR EC50 ± SEM), 102 ± 21.3 nM. In addition, the Ki at DOR [2] (setting [15]) came out at 3.37 ± 0.59 nM; on MOR [3] it was 6.45 ± 1.23 nM; at KOR [6], 91 ± 9.9 nM; at hNPFF2-R (setting [17]), 2570 ± 423 nM; on hNPFF1-R (setting [19]), 1400 ± 61 nM. In addition, the “prevention” value in the data set on C57BL/6J mice [5] was “more moderate, yet still statistically significant, effect”. For the same compound, the “antinociceptive activity over time (screening)” value in the data set with C57BL/6J mice [7] is recorded as “displayed antinociception in vivo second only to 22b”.

Regarding `CC(C)C[C@H](NC(=O)[C@@H](N)Cc1ccccc1)C(=O)N[C@@H](Cc1ccccc1)C(=O)N[C@@H](CCC(N)=O)C(=O)N1CCC[C@H]1C(=O)N[C@@H](CCC(N)=O)C(=O)N[C@@H](CCCN=C(N)N)C(=O)N[C@@H](Cc1ccccc1)C(N)=O` [NPFF, neuropeptide FF, reference compound], the Ki on DOR [2], at MOR [3] and on KOR [6] was greater than 10000 nM throughout.

For the compound `N=C(N)Nc1cccc(C(=C2CCN(Cc3ccccc3)CC2)c2cccc(O)c2)c1` [Compound 13a, 1-(3-((1-Benzylpiperidin-4-ylidene)(3-hydroxyphenyl)methyl)phenyl)guanidine], the EC50 at DOR [1] (setting [14]) worked out at 2.41e-08 ± 2.5e-09 M; at KOR [4] (setting [20]), 4.18e-08 M; on KOR [4] (setting [16]), 4.18e-08 ± 4.9e-09 M; on MOR [8] (setting [18]), 28.3 nM; at MOR [8] ([35S]GTPγS MOR EC50 ± SEM), 28.3 ± 2.5 nM. In addition, the Ki on DOR [2] (setting [15]) amounted to 0.481 ± 0.192 nM; on MOR [3], 5.06 ± 0.21 nM; at KOR [6], 2.82 ± 0.39 nM; on hNPFF2-R (setting [17]), 7080 ± 1260 nM; at hNPFF1-R (setting [19]), 2180 ± 280 nM. In the data set on C57BL/6J mice [5], the “prevention” value was “more moderate, yet still statistically significant, effect”. Also, the “antinociceptive activity over time (screening)” value in the data set on C57BL/6J mice [7] is on record as “did not show statistically significant antinociceptive activity”.

With `N=C(N)Nc1ccc(C(=C2CCN(Cc3ccccc3)CC2)c2ccc(O)cc2)cc1` [Compound 14b, 1-(4-((1-Benzylpiperidin-4-ylidene)(4-hydroxyphenyl)methyl)phenyl)guanidine], the EC50 on DOR [1] (Figure S2, axis Log(M), DPDPE run beside each compound, read-out: GTPγS Delta Agonist Functional Assay EC50 (Figure S2 curve fit)) amounted to 2.27e-07 M; at DOR [1] (agonist mode, standard DPDPE, read-out: [35S]GTPγS DOR EC50 ± SEM) it was 2.27e-07 ± 1.25e-08 M; at KOR [4] (setting [20]), 1.36e-07 M; on KOR [4] (setting [16]) it was 1.36e-07 ± 2.37e-08 M; at MOR [8] it was 18600 nM. Moreover, the Ki on DOR [2] turned out to be 6.46 ± 1.11 nM; on MOR [3] (read-out: Receptor Binding, Ki ± SEM MOR) it was 313 ± 11 nM; on KOR [6], 56.6 ± 3.8 nM; on hNPFF2-R, 4820 ± 1010 nM; at hNPFF1-R it was 1980 ± 288 nM. The “prevention” value with C57BL/6J mice [5] is “more moderate, yet still statistically significant, effect”. Further, in the data set with C57BL/6J mice [7], the “antinociceptive activity over time (screening)” value is on record as “displayed antinociception in vivo second only to 22b”.

For the compound `N=C(N)Nc1ccc(C(=C2CCN(Cc3ccccc3)CC2)c2cccc(O)c2)cc1` [Compound 13b, 1-(4-((1-Benzylpiperidin-4-ylidene)(3-hydroxyphenyl)methyl)phenyl)guanidine], the EC50 at DOR [1] (setting [13]) was 9.61e-09 M; on DOR [1] (setting [14]), 9.62e-09 ± 1.27e-09 M; at KOR [4] (setting [20]) it was 2.68e-07 M; on KOR [4] (setting [16]), 2.68e-07 ± 3.19e-08 M; on MOR [8] ([35S]GTPγS MOR EC50 ± SEM) it was 1440 ± 226 nM. Also, the Ki on DOR [2] (setting [15]) turned out to be 1.67 ± 0.61 nM; at MOR [3], 56.2 ± 7.5 nM; on KOR [6], 30.6 ± 1.1 nM; at hNPFF2-R (setting [17]), 6020 ± 1150 nM; at hNPFF1-R (setting [19]), 605 ± 136 nM. Further, in the data set on C57BL/6J mice [5], the “prevention” value is listed as “greater anti-NPFF activity”. The “antinociceptive activity over time (screening)” value in the data set with C57BL/6J mice [7] was “lacked any marked analgesic activity”.
